Columns and labels:
Format in all cases: in vivo
[1] = system: wheat (Triticum aestivum); assay: Test A postemergence
Source text: (§1) Seeds of plant species selected from barnyardgrass (Echinochloa crus-galli), Kochia (Kochia scoparia), ragweed (common ragweed, Ambrosia elatior), ryegrass, Italian (Italian ryegrass, Lolium multiflorum), crabgrass, large (Digitaria sanguinalis), giant foxtail (Setaria faberii), green foxtail (Setaria viridis), morningglory (Ipomoea spp.), pigweed (Amaranthus retroflexus), velvetleaf (Abutilon theophrasti), wheat (Triticum aestivum), and corn (Zea mays) were planted into a blend of loam soil and sand and treated preemergence with a directed soil spray using test chemicals formulated in anon-phytotoxic solvent mixture which included a surfactant.
(§2) At the same time, plants selected from these crop and weed species and also blackgrass (Alopecurus myosuroides), and Galium (catchweed bedstraw, Galium aparine) were planted in pots containing the same blend of loam soil and sand and treated with postemergence applications of test chemicals formulated in the same manner. Plants ranged in height from 2 to 10 cm and were in the one- to two-leaf stage for the postemergence treatment. Treated plants and untreated controls were maintained in a greenhouse for approximately 10 d, after which time all treated plants were compared to untreated controls and visually evaluated for injury. Plant response ratings, summarized in Table A, are based on a 0 to 100 scale where 0 is no effect and 100 is complete control. A dash (-) response means no test result.

[2] = system: ragweed (common ragweed, Ambrosia elatior); assay: Test A postemergence
Source text: as §1, §2

corn (Zea mays) = assay: Test A postemergence
Source text: as §1, §2

[3] = system: Galium (catchweed bedstraw, Galium aparine); assay: Test A postemergence
Source text: as §1, §2

[4] = system: blackgrass (Alopecurus myosuroides); assay: Test A postemergence
Source text: as §1, §2

Kochia (Kochia scoparia) [5] = assay: Test A postemergence
Source text: as §1, §2

[6] = system: pigweed (Amaranthus retroflexus); assay: Test A postemergence
Source text: as §1, §2

[7] = system: giant foxtail (Setaria faberii); assay: Test A postemergence
Source text: as §1, §2

[8] = system: barnyardgrass (Echinochloa crus-galli); assay: Test A postemergence
Source text: as §1, §2

[9] = system: ryegrass, Italian (Italian ryegrass, Lolium multiflorum); assay: Test A postemergence
Source text: as §1, §2

[10] = system: ragweed (common ragweed, Ambrosia elatior); assay: Test A preemergence; details: Preemergence; for Plant response rating, Ragweed: 125 g ai/ha, visual injury after approximately 10 d, 0 to 100 scale where 0 is no effect and 100 is complete control; for Ragweed plant response rating (0 to 100 scale, 0 is no effect, 100 is complete control): 500 g ai/ha, visual injury approx. 10 d
Source text: as §1, §2

Kochia (Kochia scoparia) [11] = assay: Test A preemergence; details: Preemergence; for Plant response rating, Kochia: 125 g ai/ha, visual injury after approximately 10 d, 0 to 100 scale where 0 is no effect and 100 is complete control; for Kochia plant response rating (0 to 100 scale, 0 is no effect, 100 is complete control): 500 g ai/ha, visual injury approx. 10 d
Source text: as §1, §2

[12] = system: pigweed (Amaranthus retroflexus); assay: Test A preemergence; details: Preemergence; for Plant response rating, Pigweed: 125 g ai/ha, visual injury after approximately 10 d, 0 to 100 scale where 0 is no effect and 100 is complete control; for Pigweed plant response rating (0 to 100 scale, 0 is no effect, 100 is complete control): 500 g ai/ha, visual injury approx. 10 d
Source text: as §1, §2

[13] = system: giant foxtail (Setaria faberii); assay: Test A preemergence; details: Preemergence; for Plant response rating, Foxtail, Giant: 125 g ai/ha, visual injury after approximately 10 d, 0 to 100 scale where 0 is no effect and 100 is complete control; for Foxtail, Giant plant response rating (0 to 100 scale, 0 is no effect, 100 is complete control): 500 g ai/ha, visual injury approx. 10 d
Source text: as §1, §2

[14] = system: barnyardgrass (Echinochloa crus-galli); assay: Test A preemergence; details: Preemergence; for Plant response rating, Barnyardgrass: 125 g ai/ha, visual injury after approximately 10 d, 0 to 100 scale where 0 is no effect and 100 is complete control; for Barnyardgrass plant response rating (0 to 100 scale, 0 is no effect, 100 is complete control): 500 g ai/ha, visual injury approx. 10 d
Source text: as §1, §2

[15] = system: ryegrass, Italian (Italian ryegrass, Lolium multiflorum); assay: Test A preemergence; details: Preemergence; for Plant response rating, Ryegrass, Italian: 125 g ai/ha, visual injury after approximately 10 d, 0 to 100 scale where 0 is no effect and 100 is complete control; for Ryegrass, Italian plant response rating (0 to 100 scale, 0 is no effect, 100 is complete control): 500 g ai/ha, visual injury approx. 10 d
Source text: as §1, §2

[16] = 125 g ai/ha, postemergence, visual rating after approx. 10 d, 0 to 100 scale (0 no effect, 100 complete control)
[17] = Postemergence, 500 g ai/ha, 0 to 100 scale where 0 is no effect and 100 is complete control
[18] = 125 g ai/ha, postemergence, visual injury rating on 0 to 100 scale (0 no effect, 100 complete control), approx. 10 d

SMILES	Plant response rating, Wheat [1, 17]	Plant response rating, Ragweed [2, 17]	Plant response rating, Corn (corn (Zea mays); [17])	Plant response rating, Galium [3, 17]	Plant response rating, Blackgrass [4, 17]	Plant response rating, Kochia (Kochia (Kochia scoparia) [5]; [17])	Plant response rating, Pigweed [6, 17]	Plant response rating, Foxtail, Giant [7, 17]	Plant response rating, Barnyardgrass [8, 17]	Plant response rating, Ryegrass, Italian [9, 17]	Plant response rating, Ragweed [10]	Ragweed plant response rating (0 to 100 scale, 0 is no effect, 100 is complete control) [10]	Plant response rating, Kochia (Kochia (Kochia scoparia) [11])	Kochia plant response rating (0 to 100 scale, 0 is no effect, 100 is complete control) (Kochia (Kochia scoparia) [11])	Plant response rating, Pigweed [12]	Pigweed plant response rating (0 to 100 scale, 0 is no effect, 100 is complete control) [12]	Plant response rating, Foxtail, Giant [13]	Foxtail, Giant plant response rating (0 to 100 scale, 0 is no effect, 100 is complete control) [13]	Plant response rating, Barnyardgrass [14]	Barnyardgrass plant response rating (0 to 100 scale, 0 is no effect, 100 is complete control) [14]	also measured
CN1CC(c2cccc(C(F)(F)F)c2)C(C(=O)Nc2cccc(Cl)c2F)C1=O (stereo not shown) [Compound 574]	70	0	80	50	70	60	40	80	90	70	0	0	40	70	20	50	90	90	90	90	Plant response rating, Wheat [1, 16]: 40; Plant response rating, Ragweed [2, 16]: 0; Plant response rating, Corn (corn (Zea mays); [16]): 60; Plant response rating, Galium [3, 16]: 40; Plant response rating, Blackgrass [4, 16]: 60; Plant response rating, Kochia (Kochia (Kochia scoparia) [5]; [16]): 30; Plant response rating, Pigweed [6, 16]: 20; Plant response rating, Foxtail, Giant [7, 16]: 80; Plant response rating, Barnyardgrass [8, 16]: 90; Plant response rating, Ryegrass, Italian [9, 16]: 50; Plant response rating, Ryegrass, Italian [15]: 40; Ryegrass, Italian plant response rating (0 to 100 scale, 0 is no effect, 100 is complete control) [15]: 80
O=C(Nc1ccccc1F)C1C(=O)N(C2C=CCCC2)CC1c1cccc(C(F)(F)F)c1 (stereo not shown) [Compound 524]	0	0	0	0	20	0	0	70	70	0	0	0	0	0	0	0	40	70	20	40	Wheat plant response rating [1, 18]: 0; Ragweed plant response rating [2, 18]: 0; Corn plant response rating (corn (Zea mays); [18]): 0; Galium plant response rating [3, 18]: 0; Blackgrass plant response rating [4, 18]: 0; Kochia plant response rating (Kochia (Kochia scoparia) [5]; [18]): 0; Pigweed plant response rating [6, 18]: 0; Foxtail, Giant plant response rating [7, 18]: 30; Barnyardgrass plant response rating [8, 18]: 30; Ryegrass, Italian plant response rating [9, 18]: 0; Plant response rating, Ryegrass, Italian [15]: 0; Ryegrass, Italian plant response rating (0 to 100 scale, 0 is no effect, 100 is complete control) [15]: 0

From patent publication US12077503B2, “Substituted cyclic amides and their use as herbicides” (FMC CORPORATION, priority 2015, dated 2024)
